According to patent US10144742B2 (Millennium Pharmaceuticals, Inc., priority 2014, dated 2018):
Where two headings read alike, the source gives them in different places.

Experiments:
PC3 cells = experiment: PC3 growth inhibition (Cell-titer glo, 72 hours); format: cell-based; details: Homo sapiens, PC-3, PC3 cells, 72 hours, Cell-titer glo, read-out: Percent Inhibition (PC3 growth inhibition); for inhibition at 1.667 µM: compound concentration 1.667 μM; for inhibition at 1 µM: compound concentration 1 μM
Method in brief: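 Compounds in AIM serum-free medium were applied for 72 h at 37 °C, 5% CO2 to PC3 cells plated overnight from RPMI1640 culture. Luminescence after 10 min CellTiter-Glo, normalised to DMSO, gave % viability at 1 μM or 1.667 μM, or GI50/LD50.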

hNAMPT protein = hNAMPT protein (Homo sapiens (Human), UniProt P43490); experiment: NAMPT enzyme assay (TR-FRET/HTRF, BodiPY ligand, anti 6His-Tb); format: binding; details: for IC50: read-out: IC50; for inhibition at 1 µM: read-out: Percent Inhibition
Method in brief: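 Compound or DMSO was incubated for 1 h at room temperature, protected from light, with BodiPY ligand and hNAMPT labelled by terbium anti-6His antibody. The 520 nm to 486 nm emission ratio after 320 nm excitation gave inhibition versus vehicle, from which concentration-response curves yielded IC50.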

[1] = NAMPT inhibition at compound concentration 1 μM
[2] = NAMPT inhibition, IC50 range class

Sequence of hNAMPT protein (P43490 whole entry): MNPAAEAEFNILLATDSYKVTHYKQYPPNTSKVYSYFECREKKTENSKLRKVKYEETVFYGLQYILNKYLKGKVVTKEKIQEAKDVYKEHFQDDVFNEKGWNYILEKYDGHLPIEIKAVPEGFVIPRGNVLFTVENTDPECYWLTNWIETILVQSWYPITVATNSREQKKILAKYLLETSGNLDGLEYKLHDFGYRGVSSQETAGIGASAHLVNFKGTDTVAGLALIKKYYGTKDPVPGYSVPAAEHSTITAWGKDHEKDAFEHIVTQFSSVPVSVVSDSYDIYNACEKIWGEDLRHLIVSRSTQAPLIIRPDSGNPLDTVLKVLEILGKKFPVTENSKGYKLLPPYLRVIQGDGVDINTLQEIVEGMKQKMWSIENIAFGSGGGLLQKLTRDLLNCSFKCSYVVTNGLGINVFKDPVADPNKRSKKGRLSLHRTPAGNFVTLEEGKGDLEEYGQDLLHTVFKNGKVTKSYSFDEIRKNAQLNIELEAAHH

Row | Compound | inhibition at 1.667 µM (PC3 cells) [%] | IC50 (hNAMPT protein; NAMPT IC50 range class) [nM] | inhibition at 1 µM (hNAMPT protein; compound concentration 1 μM) [%] | inhibition at 1 µM (hNAMPT protein; [1]) [%] | IC50 (hNAMPT protein; [2]) [nM] | inhibition at 1 µM (PC3 cells) [%]
1 | Cn1cncc1CCNC(=O)c1ccc2nc(N3CCOCC3)c(-c3ccc(F)cc3)nc2c1 [Compound I-177, 3-(4-fluorophenyl)-N-[2-(1-methyl-1H-imidazol-5-yl)ethyl]-2-(morpholin-4-yl)quinoxaline-6-carboxamide] | 2 | 100 to 500 | 77 | – | – | –
2 | O=C(NCCCc1ncc[nH]1)c1ccc2nc(-c3ccc(F)cc3)c(-c3cc(Cl)cnc3F)nc2c1 [Compound I-410, 3-(5-chloro-2-fluoropyridin-3-yl)-2-(4-fluorophenyl)-N-[3-(1H-imidazol-2-yl)propyl]quinoxaline-6-carboxamide] | 2 | – | – | 98 | 100 to 500 | –
3 | O=C(NCCCc1ncc[nH]1)c1ccc2nc(N3CCC(N4CCOCC4)CC3)c(-c3ccc(Cl)cc3)nc2c1 [Compound I-255, 3-(4-chlorophenyl)-N-[3-(1H-imidazol-2-yl)propyl]-2-[4-(morpholin-4-yl)piperidin-1-yl]quinoxaline-6-carboxamide] | 2 | < 100 | > 99 | – | – | –
4 | O=C(NCCCc1cn[nH]c1)c1ccc2nc(N3CCOCC3)c(-c3ccc(F)cc3)nc2c1 [Compound I-297, 3-(4-Fluorophenyl)-2-(morpholin-4-yl)-N-[3-(1H-pyrazol-4-yl)propyl]quinoxaline-6-carboxamide] | 2 | 100 to 500 | 88 | – | – | –
5 | COc1ccc(F)c(-c2nc3cc(C(=O)NCCCc4ncc[nH]4)ccc3nc2OC(C)C)c1 [Compound I-492, 3-(2-fluoro-5-methoxyphenyl)-N-[3-(1H-imidazol-2-yl)propyl]-2-isopropoxyquinoxaline-6-carboxamide] | 3 | – | – | 94 | < 100 | –
6 | Cc1ccc(C#N)cc1-c1nc2cc(C(=O)NCCCc3ncc[nH]3)ccc2nc1-c1ccc(F)cc1 [Compound I-472, 3-(5-cyano-2-methylphenyl)-2-(4-fluorophenyl)-N-[3-(1H-imidazol-2-yl)propyl]quinoxaline-6-carboxamide] | 2 | – | – | 98 | < 100 | –
7 | CCc1nc2ccc(C(=O)NCCCc3ncc[nH]3)cc2nc1-c1ccc(F)cc1 [Compound I-307, 2-ethyl-3-(4-fluorophenyl)-N-[3-(1H-imidazol-2-yl)propyl]quinoxaline-6-carboxamide] | 4 | 100 to 500 | 73 | – | – | –
8 | Cn1ccc2cc(-c3nc4cc(C(=O)NCCCc5ncc[nH]5)ccc4nc3-c3ccc(F)cc3)ccc21 [Compound I-386, 2-(4-fluorophenyl)-N-[3-(1H-imidazol-2-yl)propyl]-3-(1-methyl-1H-indol-5-yl)quinoxaline-6-carboxamide] | 2 | 100 to 500 | 90 | – | – | –
9 | O=C1CN(c2nc3ccc(C(=O)NCCCn4ccnc4)cc3nc2-c2ccccc2)CN1 [Compound I-7, N-[3-(1H-imidazol-1-yl)propyl]-2-(4-oxoimidazolidin-1-yl)-3-phenylquinoxaline-6-carboxamide] | – | 2000 to 10000 | 12 | – | – | 105
10 | CN1CCC(COc2nc3ccc(C(=O)NCCCc4ncc[nH]4)cc3nc2-c2ccc(F)cc2)C1 (stereo not drawn) [Compound I-513, 3-(4-fluorophenyl)-N-[3-(1H-imidazol-2-yl)propyl]-2-[(1-methylpyrrolidin-3-yl)methoxy]quinoxaline-6-carboxamide] | 3 | – | – | 99 | < 100 | –
11 | O=C(NCCCc1ncc[nH]1)c1ccc2nc(OCCc3cnoc3)c(-c3ccc(F)cc3)nc2c1 [Compound I-390, 3-(4-fluorophenyl)-N-[3-(1H-imidazol-2-yl)propyl]-2-[2-(isoxazol-4-yl)ethoxy]quinoxaline-6-carboxamide] | 2 | < 100 | 99 | – | – | –
12 | CC(C)(C)OC(=O)N1CCC(C2CCN(c3nc4ccc(C(=O)NCCn5ccnc5)cc4nc3-c3ccccc3)CC2)CC1 [Compound I-239, tert-Butyl 1′-(6-{[2-(1H-imidazol-1-yl)ethyl]carbamoyl}-3-phenylquinoxalin-2-yl)-4,4′-bipiperidine-1-carboxylate] | – | 2000 to 10000 | 25 | – | – | 14
13 | Cn1cnc(CCNC(=O)c2ccc3nc(-c4ccc(F)cc4)c(-c4ccc(F)cc4)nc3c2)c1 [Compound I-276, 2,3-bis(4-fluorophenyl)-N-[2-(1-methyl-1H-imidazol-4-yl)ethyl]quinoxaline-6-carboxamide] | – | 1000 to 2000 | 38 | – | – | 90
14 | O=C(NCCCc1ncc[nH]1)c1ccc2nc(OCC3CC4(COC4)C3)c(-c3ccc(F)cc3)nc2c1 [Compound I-378, 3-(4-fluorophenyl)-N-[3-(1H-imidazol-2-yl)propyl]-2-(2-oxaspiro[3.3]hept-6-ylmethoxy)quinoxaline-6-carboxamide] | 2 | < 100 | > 99 | – | – | –
15 | O=C(NCCCc1ncc[nH]1)c1ccc2nc(OC3CC4(CCN4)C3)c(-c3ccc(F)cc3)nc2c1 (stereo not drawn) [Compound I-404, 2-(1-azaspiro[3.3]hept-6-yloxy)-3-(4-fluorophenyl)-N-[3-(1H-imidazol-2-yl)propyl]quinoxaline-6-carboxamide] | 1 | – | – | > 99 | < 100 | –
16 | Cn1cc2c(n1)OCCN(C(=O)c1ccc3nc(-c4ccc(F)cc4)c(-c4ccc(F)cc4)nc3c1)C2 [Compound I-68, [2,3-bis(4-fluorophenyl)quinoxalin-6-yl](2-methyl-2,4,6,7-tetrahydro-5H-pyrazolo[4,3-f][1,4]oxazepin-5-yl)methanone] | – | 2000 to 10000 | 16 | – | – | 101
17 | COc1cccc(-c2nc3ccc(C(=O)NCCc4cccnc4)cc3nc2-c2cccc(OC)c2)c1 [Compound I-181, 2,3-bis(3-methoxyphenyl)-N-[2-(pyridin-3-yl)ethyl]quinoxaline-6-carboxamide] | – | < 100 | 100 | – | – | 0
18 | Cn1cc2c(n1)CN(c1nc3ccc(C(=O)NCCCn4ccnc4)cc3nc1-c1ccccc1)CC2 [Compound I-200, N-[3-(1H-imidazol-1-yl)propyl]-2-(2-methyl-2,4,5,7-tetrahydro-6H-pyrazolo[3,4-c]pyridin-6-yl)-3-phenylquinoxaline-6-carboxamide] | – | 100 to 500 | 85 | – | – | -7
19 | CC(C)Oc1nc2ccc(C(=O)NCCCc3ncc[nH]3)cc2nc1-c1cccs1 [Compound I-385, N-[3-(1H-imidazol-2-yl)propyl]-2-isopropoxy-3-(2-thienyl)quinoxaline-6-carboxamide] | 2 | < 100 | > 99 | – | – | –
20 | Cc1cnn(-c2nc3ccc(C(=O)NCCCc4ncc[nH]4)cc3nc2-c2ccc(F)cc2)c1 [Compound I-503, 3-(4-fluorophenyl)-N-[3-(1H-imidazol-2-yl)propyl]-2-(4-methyl-1H-pyrazol-1-yl)quinoxaline-6-carboxamide] | 3 | – | – | 84 | 100 to 500 | –
21 | CCOc1cccc(-c2nc3cc(C(=O)NCCCc4ncc[nH]4)ccc3nc2-c2ccc(F)cc2)c1 [Compound I-447, 3-(3-ethoxyphenyl)-2-(4-fluorophenyl)-N-[3-(1H-imidazol-2-yl)propyl]quinoxaline-6-carboxamide] | 2 | – | – | 99 | < 100 | –
22 | CN(c1nc2cc(C(=O)NCCCn3ccnc3)ccc2nc1-c1ccccc1)C1CC1 [Compound I-126, 3-[cyclopropyl(methyl)amino]-N-[3-(1H-imidazol-1-yl)propyl]-2-phenylquinoxaline-6-carboxamide] | – | 2000 to 10000 | 12 | – | – | 93
23 | O=C(NCCc1ncc[nH]1)c1ccc2nc(N3CCCCC3)c(-c3ccc(F)cc3)nc2c1 [Compound I-1, 3-(4-Fluorophenyl)-N-[2-(1H-imidazol-2-yl)ethyl]-2-(piperidin-1-yl)quinoxaline-6-carboxamide] | 3 | 500 to 1000 | 51 | – | – | –
24 | Cn1cccc1-c1nc2ccc(C(=O)NCCCn3ccnc3)cc2nc1-c1ccccc1 [Compound I-179, N-[3-(1H-imidazol-1-yl)propyl]-2-(1-methyl-1H-pyrrol-2-yl)-3-phenylquinoxaline-6-carboxamide] | – | 500 to 1000 | 57 | – | – | -7
25 | O=C(NCCCn1ccnc1)c1ccc2nc(-c3ccccc3)c(-c3cccnc3)nc2c1 [Compound I-176, N-[3-(1H-imidazol-1-yl)propyl]-2-phenyl-3-(pyridin-3-yl)quinoxaline-6-carboxamide] | – | 1000 to 2000 | 46 | – | – | 1
26 | O=C(NCCCc1ncc[nH]1)c1ccc2nc(OCCO)c(-c3ccc(F)cc3)nc2c1 [Compound I-322, 3-(4-fluorophenyl)-2-(2-hydroxyethoxy)-N-[3-(1H-imidazol-2-yl)propyl]quinoxaline-6-carboxamide] | 2 | < 100 | 96 | – | – | –
